Legend:
MV4-11 cells = assay: Leukemia cell proliferation inhibition test (ATPlite), MV4-11; assay type: cell-based; conditions: Homo sapiens, MV4-11, 72 h, MV4-11, 72 hours culture, ATPlite; GI50 per method; read-out: MV4-11 cell proliferation inhibition effect
Outline: (§1)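 Luminescent ATP read-out (firefly luciferase) used as a total cell count after 72 h compound exposure at 37° C, 5% CO2. Cells: 10,000/well in RPMI + 10% FBS. GI50 = 50% inhibition relative to 0.1% DMSO, from a sigmoid dose-response fit; duplicates.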

Molm-13 cells = assay: Leukemia cell proliferation inhibition test (ATPlite), Molm-13; assay type: cell-based; conditions: Homo sapiens, MOLM-13, 72 h, Molm-13, 72 hours culture, ATPlite; GI50 per method; read-out: MOLM13 cell proliferation inhibition effect
Outline: as §1

[1] = biological target: T1, human FLT3 protein (FLT3 (WT)) (Homo sapiens, UniProt P36888); assay: FLT3 inhibition test (FLT3 enzyme inhibition, time-resolved fluorescence of substrate peptide phosphorylation); assay type: biochemical; conditions: GST-fused human FLT3 (564 to 993 aa), ATP 50 μM; read-out: FLT3 (WT) enzyme inhibition activity
T1 construct: human FLT3 protein (intracellular region, 564 to 993 aa); GST; purchased Carna Biosciences; host or cells: baculovirus expression system
T1 sequence (P36888 564-993): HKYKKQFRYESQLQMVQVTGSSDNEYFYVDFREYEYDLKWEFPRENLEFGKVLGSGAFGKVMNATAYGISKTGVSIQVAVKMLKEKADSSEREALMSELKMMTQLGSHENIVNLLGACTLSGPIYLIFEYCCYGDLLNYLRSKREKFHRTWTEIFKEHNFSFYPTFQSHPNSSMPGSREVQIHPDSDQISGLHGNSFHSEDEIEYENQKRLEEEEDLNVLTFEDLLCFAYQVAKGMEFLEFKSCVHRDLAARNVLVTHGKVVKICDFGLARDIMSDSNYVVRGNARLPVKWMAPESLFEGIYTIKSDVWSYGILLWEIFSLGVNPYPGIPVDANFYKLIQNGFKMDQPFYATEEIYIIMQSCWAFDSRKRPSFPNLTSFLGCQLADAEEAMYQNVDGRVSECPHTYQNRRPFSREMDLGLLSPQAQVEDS
Outline: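 Substrate peptide phosphorylation detected by time-resolved fluorescence after a 30 min kinase reaction at 25° C with 50 μM ATP (final). Beforehand, compound and FLT3 (WT, 1.2 μg) stood 15 min at 25° C in HEPES buffer pH 7.5 containing MgCl2, NaCl, BSA and DTT.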

Row | Structure (SMILES) | IC50 (MV4-11 cells) | IC50 (Molm-13 cells) | IC50 [1]
1 | COCCCNc1nc(Nc2ccnc(OC)c2)ncc1C#CCCCNC(=O)[C@@H]1CCCN1C(=O)/C=C/CN(C)C [Compound 9-32, (S,E)-1-(4-(Dimethylamino)-2-butenoyl)-N-(5-(4-((3-methoxypropyl)amino)-2-((methoxypyridin-4-yl)amino)pyrimidin-5-yl)-4-pentyn-1-yl)pyrrolidine-2-carboxamide] | < 10 nM | < 10 nM | < 10 nM
2 | COCCCNc1nc(Nc2ccnc(OC)c2)ncc1C#CCCCNC(=O)[C@@H]1C[C@H](O)CN1C(=O)/C=C/CN(C)C [Compound 9-33] | < 10 nM | < 10 nM | < 10 nM
3 | COCCCNc1nc(Nc2ccnc(OC)c2)ncc1C#CCCCNC(=O)[C@@H]1C[C@H](F)CN1C(=O)/C=C/CN(C)C [Compound 9-34, (2S,4S)-1-((E)-4-(Dimethylamino)-2-butenoyl)-4-fluoro-N-(5-(4-((3-methoxypropyl)amino)-2-((methoxypyridin-4-yl)amino)pyrimidin-5-yl)-4-pentyn-1-yl)pyrrolidine-2-carboxamide] | < 10 nM | < 10 nM | < 10 nM
4 | CCCNc1nc(Nc2ccnc(OC)c2)ncc1C#CCCCNC(=O)[C@@H]1CCCN1C(=O)/C=C/CN(C)C [Compound 9-35, (S,E)-1-(4-(Dimethylamino)-2-butenoyl)-N-(5-(2-((2-methoxypyridin-4-yl)amino)-4-(propylamino)pyrimidin-5-yl)-4-pentyn-1-yl)pyrrolidine-2-carboxamide] | < 10 nM | < 10 nM | < 10 nM
5 | CCCNc1nc(Nc2ccnc(OC)c2)ncc1C#CCCCNC(=O)[C@@H]1C[C@H](O)CN1C(=O)/C=C/CN(C)C [Compound 9-36] | < 10 nM | < 10 nM | < 10 nM
6 | CCCNc1nc(Nc2ccnc(OC)c2)ncc1C#CCCCNC(=O)[C@@H]1C[C@H](F)CN1C(=O)/C=C/CN(C)C [Compound 9-37, (2S,4S)-1-((E)-4-(Dimethylamino)-2-butenoyl)-4-fluoro-N-(5-(2-((2-methoxypyridin-4-yl)amino)-4-(propylamino)pyrimidin-5-yl)-4-pentyn-1-yl)pyrrolidine-2-carboxamide] | < 10 nM | < 10 nM | < 10 nM
7 | CCCNc1nc(Nc2ccnc(OC)c2)ncc1C#CCCCNC(=O)CN(C)C(=O)/C=C/CN(C)C [Compound 9-38, (E)-4-(Dimethylamino)-N-(2-((5-(2-((2-methoxypyridin-4-yl)amino)-4-(propylamino)pyrimidin-5-yl)-4-pentyn-1-yl)amino)-2-oxoethyl)-N-methyl-2-butenamide] | < 10 nM | < 10 nM | < 10 nM
8 | CNc1nc(Nc2ccnc(OC)c2)ncc1C#CCCCNC(=O)[C@H](C)N(C)C(=O)/C=C/CN(C)C [Compound 9-39] | < 10 nM | < 10 nM | < 10 nM
9 | CCCNc1nc(Nc2nnc(C)s2)ncc1C#CCCCNC(=O)[C@H](C)N(C)C(=O)/C=C/CN(C)C [Compound 9-40] | 10 to 100 nM | 10 to 100 nM | 10 to 100 nM
10 | C[C@@H](C(=O)NCCCC#Cc1cnc(Nc2ccc(C#N)cc2)nc1Nc1ccc(F)cc1)N(C)C(=O)/C=C/CN(C)C [Compound 10-2, (S,E)-N-(1--((5-(2-((4-cyanophenyl)amino)-4-((4-fluorophenyl)amino)pyrimidin-5-yl)-4-pentyn-1-yl)amino)-1-oxopropan-2-yl)-4-(dimethylamino)-N-methyl-2-butenamide] | < 10 nM | < 10 nM | < 10 nM
11 | CC(C)c1ccc(Nc2nc(Nc3cccc(F)c3)ncc2C#CCCCNC(=O)[C@H](C)N(C)C(=O)/C=C/CN(C)C)cc1 [Compound 10-12] | < 10 nM | 10 to 100 nM | < 10 nM
12 | CC(C)CCNc1nc(Nc2ccc(C#N)cc2)ncc1C#CCCCNC(=O)[C@H](C)N(C)C(=O)/C=C/CN(C)C [Compound 10-13] | < 10 nM | < 10 nM | < 10 nM
13 | C[C@@H](C(=O)NCCCC#Cc1cnc(Nc2ccc(C#N)cc2)nc1N1CCC1)N(C)C(=O)/C=C/CN(C)C [Compound 10-14] | < 10 nM | < 10 nM | < 10 nM
14 | CC(C)CN(C)c1nc(Nc2ccc(C#N)cc2)ncc1C#CCCCNC(=O)[C@H](C)N(C)C(=O)/C=C/CN(C)C [Compound 10-15] | < 10 nM | < 10 nM | < 10 nM

Results, then the compound that gave them:

Row | IC50 (MV4-11 cells) | IC50 (Molm-13 cells) | IC50 [1] | Structure (SMILES)
15 | < 10 nM | < 10 nM | < 10 nM | COCCCNc1nc(Nc2ccnc(OC)c2)ncc1C#CCCCNC(=O)[C@H](C)N(C)C(=O)/C=C/CN(C)C [Compound 9-31]
16 | < 10 nM | 10 to 100 nM | < 10 nM | COCCCNc1nc(Nc2cccc(F)c2)ncc1C#CCCCNC(=O)[C@H](C)N(C)C(=O)/C=C/CN(C)C [Compound 10-1, (S,E)-4-(dimethylamino)-N-(1-((5-(2-((3-fluorophenyl)amino)-4-((3-methoxypropyl)amino)pyrimidin-5-yl)-4-pentyn-1-yl)amino)-1-oxopropan-2-yl)-N-methyl-2-butenamide]
17 | < 10 nM | < 10 nM | < 10 nM | COc1ccc(Nc2nc(Nc3cccc(F)c3)ncc2C#CCCCNC(=O)[C@H](C)N(C)C(=O)/C=C/CN(C)C)cc1 [Compound 10-3, (S,E)-4-(Dimethylamino)-N-(1-((5-(2-((3-fluorophenyl)amino)-4-((4-methoxyphenyl)amino)pyrimidin-5-yl)-4-pentyn-1-yl)amino)-1-oxopropan-2-yl)-N-methyl-2-butenamide]
18 | < 10 nM | < 10 nM | < 10 nM | C[C@@H](C(=O)NCCCC#Cc1cnc(Nc2cccc(F)c2)nc1NCCCN(C)C)N(C)C(=O)/C=C/CN(C)C [Compound 10-4]
19 | < 10 nM | < 10 nM | < 10 nM | C[C@@H](C(=O)NCCCC#Cc1cnc(Nc2cccc(F)c2)nc1N1CCOCC1)N(C)C(=O)/C=C/CN(C)C [Compound 10-5, (S,E)-4-(Dimethylamino)-N-(1-((5-(2-((3-fluorophenyl)amino)-4-morpholinopyrimidin-5-yl)-4-pentyn-1-yl)amino)-1-oxopropan-2-yl)-N-methyl-2-butenamide]
20 | < 10 nM | < 10 nM | < 10 nM | C[C@@H](C(=O)NCCCC#Cc1cnc(Nc2cccc(F)c2)nc1NCCN1CCOCC1)N(C)C(=O)/C=C/CN(C)C [Compound 10-6]
21 | < 10 nM | < 10 nM | < 10 nM | C[C@@H](C(=O)NCCCC#Cc1cnc(Nc2cccc(F)c2)nc1NCC1CCOCC1)N(C)C(=O)/C=C/CN(C)C [Compound 10-7]
22 | < 10 nM | 10 to 100 nM | < 10 nM | C[C@@H](C(=O)NCCCC#Cc1cnc(Nc2cccc(F)c2)nc1NCCC#N)N(C)C(=O)/C=C/CN(C)C [Compound 10-8]
23 | 10 to 100 nM | 10 to 100 nM | < 10 nM | C[C@@H](C(=O)NCCCC#Cc1cnc(Nc2cccc(F)c2)nc1NCCc1cccs1)N(C)C(=O)/C=C/CN(C)C [Compound 10-9]
24 | < 10 nM | < 10 nM | < 10 nM | CCCN(CCC)c1nc(Nc2cccc(F)c2)ncc1C#CCCCNC(=O)[C@H](C)N(C)C(=O)/C=C/CN(C)C [Compound 10-10]
25 | < 10 nM | 10 to 100 nM | < 10 nM | Cc1ccc(Nc2nc(Nc3cccc(F)c3)ncc2C#CCCCNC(=O)[C@H](C)N(C)C(=O)/C=C/CN(C)C)cc1 [Compound 10-11]

From patent US9145415B2, “Nitrogen-containing heterocyclic compound or salt thereof” (FUJIFILM Corporation, priority 2012, dated 2015)
